Experimental data published in ChEMBL document CHEMBL3885881, “DrugMatrix”.

Species: Rattus norvegicus
Format: toxicity, organism-based, Sprague-Dawley
Conditions: in vivo, po, route oral GAVAGE, […]; for ABSOLUTE EOSINOPHIL / ABSOLUTE LYMPHOCYTE / ABSOLUTE MONOCYTE / ABSOLUTE SEGMENTED NEUTROPHIL / BASOPHIL / EOSINOPHIL / ERYTHROCYTE COUNT / HEMATOCRIT / HEMOGLOBIN / LEUKOCYTE COUNT / LYMPHOCYTE / MEAN CORPUSCULAR HEMOGLOBIN / MEAN CORPUSCULAR HEMOGLOBIN CONCENTRATION / MEAN CORPUSCULAR VOLUME / MONOCYTE / NEUTROPHIL / NUCLEATED RED BLOOD CELLS / PLATELET COUNT: tissue Blood; for ALANINE AMINOTRANSFERASE / ALKALINE PHOSPHATASE / ASPARTATE AMINOTRANSFERASE / BLOOD UREA NITROGEN / CARBON DIOXIDE / CHLORIDE / CHOLESTEROL / CREATINE PHOSPHOKINASE / CREATININE / GLUCOSE / LACTATE DEHYDROGENASE / LIPASE / PHOSPHORUS / POTASSIUM / SODIUM / TOTAL BILIRUBIN / TOTAL PROTEIN / URIC ACID: tissue Plasma
[1] = 100 mg/kg, 24 h, dose level Low, time 1 day
[2] = 700 mg/kg, 6 h, dose level High, time 0.25 day
[3] = 700 mg/kg, 24 h, dose level High, time 1 day

Description: DrugMatrix - Regimen: Single

## Cc1ccc(C)c(OCCCC(C)(C)C(=O)O)c1 [GEMFIBROZIL]
[1]
  ABSOLUTE EOSINOPHIL: 126.33 CELLS/uL
  ABSOLUTE LYMPHOCYTE: 13618.33 CELLS/uL
  ABSOLUTE MONOCYTE: 235.33 CELLS/uL
  ABSOLUTE SEGMENTED NEUTROPHIL: 1320 CELLS/uL
  BASOPHIL: 0%
  EOSINOPHIL: 0.83%
  ERYTHROCYTE COUNT: 5.54 x10E6/uL
  HEMATOCRIT: 35.43%
  HEMOGLOBIN: 13.82 G/DL
  LEUKOCYTE COUNT: 15.3 x10E3/uL
  LYMPHOCYTE: 89.17%
  MEAN CORPUSCULAR HEMOGLOBIN: 25.02 pg
  MEAN CORPUSCULAR HEMOGLOBIN CONCENTRATION: 39 G/DL
  MEAN CORPUSCULAR VOLUME: 64.12 fL
  MONOCYTE: 1.5%
  NEUTROPHIL: 8.5%
  NUCLEATED RED BLOOD CELLS: 0 /100WBC
  PLATELET COUNT: 879.83 x10E3/uL
  ALANINE AMINOTRANSFERASE: 82.17 u/L
  ALKALINE PHOSPHATASE: 348.5 u/L
  ASPARTATE AMINOTRANSFERASE: 88.67 u/L
  BLOOD UREA NITROGEN: 11.17 mg/dL
  CARBON DIOXIDE: 30.17 mmol/L
  CHLORIDE: 101.33 MEQ/L
  CHOLESTEROL: 57.17 mg/dL
  CREATINE PHOSPHOKINASE: 237 u/L
  CREATININE: 0.18 mg/dL
  GLUCOSE: 138.33 mg/dL
  LACTATE DEHYDROGENASE: 130.5 u/L
  LIPASE: 8.67 u/L
  PHOSPHORUS: 9.87 mg/dL
  POTASSIUM: 6.21 MEQ/L
  SODIUM: 146.35 MEQ/L
  TOTAL BILIRUBIN: 0.15 mg/dL
  TOTAL PROTEIN: 5.83 G/DL
  URIC ACID: 1.02 mg/dL
[2]
  ABSOLUTE EOSINOPHIL: 0 CELLS/uL
  ABSOLUTE LYMPHOCYTE: 11512.83 CELLS/uL
  ABSOLUTE MONOCYTE: 281.33 CELLS/uL
  ABSOLUTE SEGMENTED NEUTROPHIL: 1289.17 CELLS/uL
  BASOPHIL: 0%
  EOSINOPHIL: 0%
  ERYTHROCYTE COUNT: 5.72 x10E6/uL
  HEMATOCRIT: 36.68%
  HEMOGLOBIN: 14.32 G/DL
  LEUKOCYTE COUNT: 13.08 x10E3/uL
  LYMPHOCYTE: 87.5%
  MEAN CORPUSCULAR HEMOGLOBIN: 25.02 pg
  MEAN CORPUSCULAR HEMOGLOBIN CONCENTRATION: 39.02 G/DL
  MEAN CORPUSCULAR VOLUME: 64.17 fL
  MONOCYTE: 2.33%
  NEUTROPHIL: 10.17%
  NUCLEATED RED BLOOD CELLS: 0 /100WBC
  PLATELET COUNT: 1058.5 x10E3/uL
  ALANINE AMINOTRANSFERASE: 68.17 u/L
  ALKALINE PHOSPHATASE: 373.33 u/L
  ASPARTATE AMINOTRANSFERASE: 85.5 u/L
  BLOOD UREA NITROGEN: 9.83 mg/dL
  CARBON DIOXIDE: 30.5 mmol/L
  CHLORIDE: 95.17 MEQ/L
  CHOLESTEROL: 81.83 mg/dL
  CREATINE PHOSPHOKINASE: 224.83 u/L
  CREATININE: 0.16 mg/dL
  GLUCOSE: 138.17 mg/dL
  LACTATE DEHYDROGENASE: 127.17 u/L
  LIPASE: 12.33 u/L
  PHOSPHORUS: 11.42 mg/dL
  POTASSIUM: 6.25 MEQ/L
  SODIUM: 143.7 MEQ/L
  TOTAL BILIRUBIN: 0.68 mg/dL
  TOTAL PROTEIN: 6.2 G/DL
  URIC ACID: 1.3 mg/dL
[3]
  ABSOLUTE EOSINOPHIL: 30.33 CELLS/uL
  ABSOLUTE LYMPHOCYTE: 15144 CELLS/uL
  ABSOLUTE MONOCYTE: 266 CELLS/uL
  ABSOLUTE SEGMENTED NEUTROPHIL: 893 CELLS/uL
  BASOPHIL: 0%
  EOSINOPHIL: 0.17%
  ERYTHROCYTE COUNT: 5.34 x10E6/uL
  HEMATOCRIT: 34.55%
  HEMOGLOBIN: 13.67 G/DL
  LEUKOCYTE COUNT: 16.33 x10E3/uL
  LYMPHOCYTE: 92.33%
  MEAN CORPUSCULAR HEMOGLOBIN: 25.58 pg
  MEAN CORPUSCULAR HEMOGLOBIN CONCENTRATION: 39.58 G/DL
  MEAN CORPUSCULAR VOLUME: 64.72 fL
  MONOCYTE: 1.67%
  NEUTROPHIL: 5.83%
  NUCLEATED RED BLOOD CELLS: 0.33 /100WBC
  PLATELET COUNT: 1050.67 x10E3/uL
  ALANINE AMINOTRANSFERASE: 55.83 u/L
  ALKALINE PHOSPHATASE: 484.5 u/L
  ASPARTATE AMINOTRANSFERASE: 65.17 u/L
  BLOOD UREA NITROGEN: 10.67 mg/dL
  CARBON DIOXIDE: 28 mmol/L
  CHLORIDE: 100 MEQ/L
  CHOLESTEROL: 71 mg/dL
  CREATINE PHOSPHOKINASE: 320.67 u/L
  CREATININE: 0.21 mg/dL
  GLUCOSE: 140.83 mg/dL
  LACTATE DEHYDROGENASE: 120.67 u/L
  LIPASE: 9.67 u/L
  PHOSPHORUS: 10.38 mg/dL
  POTASSIUM: 5.59 MEQ/L
  SODIUM: 146.73 MEQ/L
  TOTAL BILIRUBIN: 0.25 mg/dL
  TOTAL PROTEIN: 5.97 G/DL
  URIC ACID: 1.07 mg/dL
